Data taken from US20260234139A1, “PGDH INHIBITORS AND METHODS OF MAKING AND USING” (Epirium Bio Inc., priority 2023, published 2026).
pEC50, pIC50: −log10 of the molar value.

Assays:
A549 = A549 EC50 (cell assay, method not described); assay type: cell-based
15-PGDH/HPGD = target: T1, 15-PGDH/HPGD (Homo sapiens, UniProt P15428); assay: hPGDH inhibitor screening biochemical assay; conditions: 10 nM enzyme, 15 μM Prostaglandin E2, 0.25 mM NAD, fluorescence ex/em 340/485 nm
T1 construct: purchased R&D System 5660-DH
T1 sequence (P15428 1-266): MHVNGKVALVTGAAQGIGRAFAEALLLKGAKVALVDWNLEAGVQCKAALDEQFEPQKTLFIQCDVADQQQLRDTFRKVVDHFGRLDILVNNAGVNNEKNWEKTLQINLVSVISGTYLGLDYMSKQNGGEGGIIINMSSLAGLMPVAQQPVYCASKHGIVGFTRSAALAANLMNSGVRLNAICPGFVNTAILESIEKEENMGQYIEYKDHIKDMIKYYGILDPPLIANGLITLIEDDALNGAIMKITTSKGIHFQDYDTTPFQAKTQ
Procedure: A hydroxyprostaglandin dehydrogenase inhibition screening biochemical assay can be performed to assess the synthesized inhibitors provided herein. Provided herein is an exemplary biochemical assay for hPGDH inhibitor screening.
The in vitro biochemical assay can be performed in white, 384 plates in total 20 μl reaction volume consisting of 10 nM of 15-PGDH/HPGD (R&D System #5660-DH), 15 μM Prostaglandin E2 (Sigma, Cat #P5640-10 MG) and 0.25 mM B-Nicotinamide adenine dinucleotide sodium salt (Sigma, Cat #N0632-5G) made in reaction buffer (50 mM Tris-HCl, pH 7.5, 0.01% Tween 20) at 10-point dose response curve for test/tool compounds. Briefly, 5 μl (4×) of compounds solution and 5 μl (final concentration, 10 nM) of enzyme solution is added to white 384 well plates and incubated for 10 mins at 37° C. 5 μl (4×) of Prostaglandin E2 and 5 μl (4×) of β-Nicotinamide adenine dinucleotide sodium salt is added to the wells and incubated for 10 mins at room temperature. Fluorescence is recorded at ex/em=340 nm/485 nm.

SMILES | pEC50 (A549; Homo sapiens, A549, A549) | pIC50 (15-PGDH/HPGD) | pEC50 (A549; A549)
COC(C)(C)CC[C@@H](O)c1cnc2c(cnn2-c2cccc(-c3nnc[nH]3)c2)c1 [Compound 55B] | > 7.00 | > 7.00 | 
O=C(O)c1ccc(-n2ncc3cc([C@@H](O)COC4CCC4)cnc32)cc1 [Compound 42A, (R)-4-(5-(2-cyclobutoxy-1-hydroxyethyl)-1H-pyrazolo[3,4-b]pyridin-1-yl)benzoic acid] | ≤ 6.00 | > 7.00 | 
CC(C)OCC[C@H](O)c1cnc2c(ccn2-c2cccc(-c3nnc[nH]3)c2)c1 [Compound 41A] | 6.00 to 7.00 | > 7.00 | 
O[C@@H](COC1CCC1)c1cnc2c(ccn2-c2cccc(-c3nnc[nH]3)c2)n1 [Compound 30B] | > 7.00 | > 7.00 | 
CCOC(C)(C)C(O)c1cnc2c(cnn2-c2cccc(-c3nnc[nH]3)c2)c1 (single isomer, unassigned) [Compound 34B] |  | 6.00 to 7.00 | ≤ 6.00
CC(C)CC[C@H](O)c1cnc2c(ccn2-c2ccc(C(=O)O)cc2)n1 [Compound 40A] | > 7.00 | > 7.00 | 
CC(C)OC[C@@H](O)c1cnc2c(ccn2-c2cccc(-c3nnc[nH]3)c2)n1 [Compound 20A] | > 7.00 | > 7.00 | 
CC(C)(C)OC[C@H](O)c1cnc2c(cnn2-c2cccc(-c3nnc[nH]3)c2)c1 [Compound 32A] | ≤ 6.00 | > 7.00 | 
CC(C)OC[C@H](O)c1cnc2c(ccn2-c2cccc(-c3nnc[nH]3)c2)n1 [Compound 20B] | 6.00 to 7.00 | > 7.00 | 
CCCC[C@@H](O)c1cnc2c(ccn2-c2cccc(-c3nnc[nH]3)c2)n1 [Compound 2B] | 6.00 to 7.00 | > 7.00 | 
O[C@H](c1cnc2c(ccn2-c2cccc(-c3nnc[nH]3)c2)c1)C1CCC1 [Compound 10A] | > 7.00 | > 7.00 | 
COC(C)(C)C[C@H](O)c1cnc2c(cnn2-c2cccc(-c3nnc[nH]3)c2)c1 [Compound 54B] | 6.00 to 7.00 | > 7.00 | 
CCCCC(C)(O)c1cnc2c(ccn2-c2cc(Cl)cc(-c3nnc[nH]3)c2)c1 (stereo not drawn) [Compound 15] | ≤ 6.00 | 6.00 to 7.00 | 
CCOC(C)(C)[C@H](O)c1cnc2c(cnn2-c2ccc(C(=O)O)cc2)c1 [Compound 53A] | 6.00 to 7.00 | 6.00 to 7.00 | 
COC(C)(C)C[C@@H](O)c1cnc2c(ccn2-c2cccc(-c3nnc[nH]3)c2)c1 [Compound 54A] | > 7.00 | > 7.00 | 
CC(C)(O)[C@H](O)c1cnc2c(cnn2-c2cccc(-c3nnc[nH]3)c2)c1 [Compound 33A, (R)-1-(1-(3-(4H-1,2,4-triazol-3-yl)phenyl)-1H-pyrazolo[3,4-b]pyridin-5-yl)-2-methylpropane-1,2-diol] | ≤ 6.00 | 6.00 to 7.00 | 
CCCC[C@@H](O)c1cnc2c(ccn2-c2cc(Cl)cc(-c3nnc[nH]3)c2)c1 [Compound 17A] | > 7.00 | > 7.00 | 
CCCOC(C)(C)[C@H](O)c1cnc2c(cnn2-c2cccc(-c3nnc[nH]3)c2)c1 [Compound 57A] | ≤ 6.00 | ≤ 6.00 | 
CC(C)(C)OC[C@@H](O)c1cnc2c(ccn2-c2cccc(-c3nnc[nH]3)c2)n1 [Compound 26B] | > 7.00 | > 7.00 | 
CN(C)C[C@H](O)c1cnc2c(cnn2-c2cccc(-c3nnc[nH]3)c2)c1 [Compound 25A] | ≤ 6.00 | 6.00 to 7.00 | 
CC(C)(O)[C@@H](O)c1cnc2c(cnn2-c2cccc(-c3nnc[nH]3)c2)c1 [Compound 33B, (S)-1-(1-(3-(4H-1,2,4-triazol-3-yl)phenyl)-1H-pyrazolo[3,4-b]pyridin-5-yl)-2-methylpropane-1,2-diol] | ≤ 6.00 | 6.00 to 7.00 | 
O=C(O)c1ccc(-n2ccc3nc([C@@H](O)C4CC(F)(F)C4)cnc32)cc1 [Compound 46B] | 6.00 to 7.00 | > 7.00 | 
O=C(O)c1ccc(-n2ncc3cc([C@H](O)COC4CCC4)cnc32)cc1 [Compound 42B] | > 7.00 | > 7.00 | 

More lines, now with the values ahead:

pEC50 (A549; Homo sapiens, A549, A549) | pIC50 (15-PGDH/HPGD) | pEC50 (A549; A549) | SMILES
> 7.00 | > 7.00 |  | O=C(O)c1ccc(-n2ncc3cc([C@H](O)COC4CCCC4)cnc32)cc1 [Compound 89B]
> 7.00 | > 7.00 |  | C[C@H]1C[C@@H](OC[C@@H](O)c2cnc3c(cnn3-c3ccc(C(=O)O)cc3)c2)C1 [Compound 127B]
6.00 to 7.00 | > 7.00 |  | CC(C)OCC(O)c1cnc2c(cnn2-c2ccc(CCC(=O)O)c(F)c2)c1 (stereo in doubt) [Compound 70B, (S)-3-(2-fluoro-4-(5-(1-hydroxy-2-isopropoxyethyl)-1H-pyrazolo[3,4-b]pyridin-1-yl)phenyl) propanoic acid]
> 7.00 | > 7.00 |  | CCCOC(C)(C)[C@@H](O)c1cnc2c(cnn2-c2cccc(-c3nnc[nH]3)c2)c1 [Compound 57B]
6.00 to 7.00 | > 7.00 |  | Cc1nn(-c2ccc(C(=O)O)cc2)c2ncc([C@@H](O)COC3CC3)cc12 [Compound 126A]
≤ 6.00 | ≤ 6.00 |  | O[C@H](COC1CCC1)c1cnc2c(cnn2-c2ccc(N3CCOCC3)cc2)c1 [Compound 76B]
≤ 6.00 | > 7.00 |  | O=C(O)c1ccc(-n2ncc3cc([C@H](O)COCC4CC4)cnc32)cc1 [Compound 107B]
> 7.00 | > 7.00 |  | NC(=O)c1ccc(-n2ncc3cc([C@H](O)COC4CCC4)cnc32)cc1 [Compound 81A]
6.00 to 7.00 | > 7.00 |  | O=C(O)c1ccc(-n2ncc3cc([C@H](O)C4(OCC(F)F)CC4)cnc32)cc1 [Compound 72A]
6.00 to 7.00 | > 7.00 |  | O=C(O)c1ccc(-n2ncc3cc([C@H](O)C4COC4)ccc32)cc1 [Compound 120A]
≤ 6.00 | ≤ 6.00 |  | CS(=O)(=O)c1ccc(-n2ncc3cc([C@H](O)COC4CCC4)cnc32)cc1 [Compound 121B]
> 7.00 | > 7.00 |  | O=C(O)CCc1ccc(-n2ncc3cc([C@@H](O)COC4CC4)cnc32)cc1F [Compound 86A]
6.00 to 7.00 | > 7.00 |  | O[C@H](COC1CCC1)c1cnc2c(cnn2-c2ccc(-c3nnn[nH]3)cc2)c1 [Compound 79A]
6.00 to 7.00 | 6.00 to 7.00 |  | CCOC1([C@H](O)c2cnc3c(cnn3-c3cccc(-c4nnc[nH]4)c3)c2)CCC1 [Compound 83A]
6.00 to 7.00 | > 7.00 |  | C[C@H](OC1CCC1)[C@@H](O)c1cnc2c(cnn2-c2ccc(C(=O)O)cc2)c1 [Compound 108D]
> 7.00 | > 7.00 |  | CC(C)OC[C@@H](O)c1cnc2c(cnn2-c2ccc(CCC(=O)O)cc2)c1 [Compound 69A]

pEC50 (A549; Homo sapiens, A549, A549) | pIC50 (15-PGDH/HPGD) | pEC50 (A549; A549) | SMILES
≤ 6.00 | > 7.00 |  | CC1(OC[C@H](O)c2cnc3c(cnn3-c3ccc(C(=O)O)cc3)c2)CC1 [Compound 92A]
> 7.00 | > 7.00 |  | CC(C)(OCC(F)F)[C@@H](O)c1cnc2c(cnn2-c2cccc(-c3nnc[nH]3)c2)c1 [Compound 61A]
6.00 to 7.00 | ≤ 6.00 |  | CC(C)(OCC(F)F)[C@H](O)c1cnc2c(cnn2-c2cccc(-c3nnc[nH]3)c2)c1 [Compound 61B]
6.00 to 7.00 | > 7.00 |  | CNC(=O)c1ccc(-n2ncc3cc([C@@H](O)COC(C)C)cnc32)cc1 [Compound 67B]
> 7.00 | > 7.00 |  | O[C@@H](c1cnc2c(cnn2-c2ccc3nc(N4CCOCC4)nn3c2)c1)C1COC1 [Compound 64B]
≤ 6.00 | > 7.00 |  | O=C(O)c1ccc(-n2ncc3cc([C@H](O)COC4CCC4)cnc32)cn1 [Compound 96A]
≤ 6.00 | ≤ 6.00 |  | O=C(O)c1ccc(-n2ncc3cc([C@@H](O)C4(OCC(F)F)CC4)cnc32)cc1 [Compound 72B]
6.00 to 7.00 | > 7.00 |  | CC1(OC[C@H](O)c2cnc3c(cnn3-c3ccc(C(=O)O)cc3)c2)CCC1 [Compound 90A]
6.00 to 7.00 | 6.00 to 7.00 |  | CC(C)OC[C@@H](O)c1cnc2c(cnn2-c2ccc(CC(=O)O)cc2)c1 [Compound 71A]
≤ 6.00 | ≤ 6.00 |  | CNC(=O)c1cccc(-n2ncc3cc([C@H](O)COC4CCC4)cnc32)c1 [Compound 110B]
≤ 6.00 | ≤ 6.00 |  | C[S+]([O-])c1cccc(-n2ncc3cc([C@H](O)COC4CCC4)cnc32)c1 (stereo partly drawn) [Compound 125B]
6.00 to 7.00 | 6.00 to 7.00 |  | CS(=O)(=O)c1ccc(-n2ncc3cc([C@@H](O)COC4CCC4)cnc32)cc1 [Compound 121A]
6.00 to 7.00 | > 7.00 |  | CCOC1([C@@H](O)c2cnc3c(cnn3-c3cccc(-c4nnc[nH]4)c3)c2)CC1 [Compound 63B]
≤ 6.00 | ≤ 6.00 |  | CN(C)C(=O)c1cccc(-n2ncc3cc([C@H](O)COC4CCC4)cnc32)c1 [Compound 111B]
≤ 6.00 | 6.00 to 7.00 |  | O[C@@H](COC1CCC1)c1cnc2c(cnn2-c2ccc(N3CCOCC3)cc2)c1 [Compound 76A]
